# Results as given in ChEMBL document CHEMBL4425099, “Use of Osmotic Pumps to Establish the Pharmacokinetic-Pharmacodynamic Relationship and Define Desirable Human Performance Characteristics for Aggrecanase Inhibitors” (J Med Chem, 2016).
# Active and inactive are the calls of the source. The calls are words filed in the database; no cut-off is given here.
# Tests used:
# [1] = Lipophilicity, log P of the compound; assay type: physicochemical; conditions: octanol/water
# [2] = Solubility of the compound at pH 2.2; assay type: physicochemical; conditions: buffer
# [3] = Half life in cynomolgus monkey at 1 mg/kg, iv or 5 mg/kg, po; assay type: ADME, organism-based, Macaca fascicularis; conditions: in vivo
# [4] = system: Rattus norvegicus; experiment: Reduction in ADAMTS-4/ADAMTS-5 mediated aggrecan cleavage products in Lewis rat model of MIA assessed as aggrecanase-cleaved fragments at 10 mg/mL, sc administered through infusion pump post 3 days MIA induction measured after 4 hrs of last dosage on day 7 by NITEGE sandwich ELISA; assay type: functional
# [5] = system: Rattus norvegicus; experiment: Reduction in ADAMTS-4/ADAMTS-5 mediated aggrecan cleavage products in Lewis rat model of MIA assessed as aggrecanase-cleaved fragments at 30 mg/mL, sc administered through infusion pump post 3 days MIA induction measured after 4 hrs of last dosage on day 7 by NITEGE sandwich ELISA; assay type: functional
# [6] = Clearance in cynomolgus monkey at 1 mg/kg, iv or 5 mg/kg, po; assay type: ADME, organism-based, Macaca fascicularis; conditions: in vivo
# [7] = Ratio of plasma concentration in Lewis rat model of MIA at 30 mg/kg, po bid administered post 3 days MIA induction measured after 1 hr of last dosage on day 7 to IC50 for human ADAMTS5 in presence of Lewis rat plasma; assay type: ADME, organism-based; conditions: in vivo
# [8] = Plasma concentration in Lewis rat model of MIA at 10 mg/mL, sc administered through infusion pump post 3 days MIA induction; assay type: ADME, organism-based
# [9] = Oral bioavailability in dog at 5 mg/kg; assay type: ADME, organism-based, Canis lupus familiaris; conditions: in vivo
# [10] = Ratio of plasma concentration in Lewis rat model of MIA at 10 mg/kg, po bid administered post 3 days MIA induction measured after 4 hrs of last dosage on day 7 to IC50 for human ADAMTS5 in presence of Lewis rat plasma; assay type: ADME, organism-based; conditions: in vivo
# [11] = Ratio of plasma concentration in Lewis rat model of MIA at 30 mg/mL, sc administered through infusion pump post 3 days MIA induction to IC50 for human ADAMTS5 in presence of rat plasma; assay type: ADME, organism-based; conditions: in vivo, 72 h
# [12] = Tmax in Lewis rat plasma at 30 mg/kg, po; assay type: ADME, organism-based
# [13] = Clearance in rat at 1 mg/kg, iv or 10 mg/kg, po; assay type: ADME, organism-based; conditions: in vivo
# [14] = Volume of distribution at steady state in cynomolgus monkey at 1 mg/kg, iv or 5 mg/kg, po; assay type: ADME, organism-based, Macaca fascicularis; conditions: in vivo, read-out: Vdss
# [15] = Oral bioavailability in cynomolgus monkey at 5 mg/kg; assay type: ADME, organism-based, Macaca fascicularis; conditions: in vivo
# [16] = Fraction unbound in human liver microsomes; assay type: ADME, Microsome
# [17] = Half life in rat at 1 mg/kg, iv or 10 mg/kg, po; assay type: ADME, organism-based; conditions: in vivo
# [18] = system: Rattus norvegicus; experiment: Reduction in ADAMTS-4/ADAMTS-5 mediated aggrecan cleavage products in Lewis rat model of MIA assessed as aggrecanase-cleaved fragments at 30 mg/kg, po bid administered post 3 days MIA induction measured after 4 hrs of last dosage on day 7 by NITEGE sandwich ELISA; assay type: functional
# [19] = Volume of distribution at steady state in rat at 1 mg/kg, iv or 10 mg/kg, po; assay type: ADME, organism-based; conditions: in vivo, read-out: Vdss
# [20] = Dissociation constant, acidic pKa of the compound; assay type: physicochemical
# [21] = Fraction unbound in human plasma; assay type: ADME, cell-free
# [22] = Half life in dog at 3 mg/kg, iv or 5 mg/kg, po; assay type: ADME, organism-based, Canis lupus familiaris; conditions: in vivo
# [23] = Clearance in dog at 3 mg/kg, iv or 5 mg/kg, po; assay type: ADME, organism-based, Canis lupus familiaris; conditions: in vivo
# [24] = Volume of distribution at steady state in dog at 3 mg/kg, iv or 5 mg/kg, po; assay type: ADME, organism-based, Canis lupus familiaris; conditions: in vivo, read-out: Vdss
# [25] = Fraction unbound in dog plasma; assay type: ADME, cell-free, Canis lupus familiaris
# [26] = Ratio of plasma concentration in Lewis rat model of MIA at 30 mg/kg, po bid administered post 3 days MIA induction measured after 4 hrs of last dosage on day 7 to IC50 for human ADAMTS5 in presence of Lewis rat plasma; assay type: ADME, organism-based; conditions: in vivo
# [27] = Ratio of plasma concentration in Lewis rat model of MIA at 1.44 mg/mL, sc administered through infusion pump post 3 days MIA induction to IC50 for human ADAMTS5 in presence of rat plasma; assay type: ADME, organism-based; conditions: in vivo, 72 h
# [28] = Plasma concentration in Lewis rat model of MIA at 4.3 mg/mL, sc administered through infusion pump post 3 days MIA induction; assay type: ADME, organism-based
# [29] = Solubility of the compound at pH 7.5; assay type: physicochemical; conditions: buffer
# [30] = Plasma concentration in Lewis rat model of MIA at 30 mg/mL, sc administered through infusion pump post 3 days MIA induction; assay type: ADME, organism-based
# [31] = Fraction unbound in rat plasma; assay type: ADME, cell-free
# [32] = Fraction unbound in cynomolgus monkey plasma; assay type: ADME, cell-free, Macaca fascicularis
# [33] = Ratio of plasma concentration in Lewis rat model of MIA at 100 mg/kg, po bid administered post 3 days MIA induction measured after 4 hrs of last dosage on day 7 to IC50 for human ADAMTS5 in presence of Lewis rat plasma; assay type: ADME, organism-based; conditions: in vivo
# [34] = system: Rattus norvegicus; experiment: Reduction in ADAMTS-4/ADAMTS-5 mediated aggrecan cleavage products in Lewis rat model of MIA assessed as aggrecanase-cleaved fragments at 6 mg/mL administered through infusion pump post 3 days MIA induction measured after 4 hrs of last dosage on day 7 by NITEGE sandwich ELISA; assay type: functional
# [35] = Solubility of the compound at pH 2; assay type: physicochemical; conditions: buffer
# [36] = Plasma concentration in Lewis rat model of MIA at 60 mg/mL, […] post 3 days MIA induction; assay type: ADME, organism-based
# [37] = Ratio of plasma concentration in Lewis rat model of MIA at 18 mg/mL, […] post 3 days MIA induction to IC50 for human ADAMTS5 in presence of rat plasma; assay type: ADME, organism-based; conditions: in vivo, 72 h
# [38] = system: Rattus norvegicus; experiment: Reduction in ADAMTS-4/ADAMTS-5 mediated aggrecan cleavage products in Lewis rat model of MIA assessed as aggrecanase-cleaved fragments at […] administered through infusion pump post 3 days MIA induction measured after 4 hrs of last dosage on day 7 by NITEGE sandwich ELISA; assay type: functional
# [39] = Ratio of plasma concentration in Lewis rat model of MIA at 45 mg/kg, po qd administered post 3 days MIA induction measured after 4 hrs of last dosage on day 7 to IC50 for human ADAMTS5 in presence of Lewis rat plasma; assay type: ADME, organism-based; conditions: in vivo
# [40] = system: Rattus norvegicus; experiment: Reduction in meniscal tear-induced osteoarthritis total joint score in Lewis rat surgical model at 30 and 100 mg/kg, po bid relative to vehicle control; assay type: functional, organism-based
# [41] = Plasma concentration in Lewis rat model of MIA at […], po administered through infusion pump post 3 days MIA induction; assay type: ADME, organism-based
# [42] = system: Rattus norvegicus; experiment: Reduction in ADAMTS-4/ADAMTS-5 mediated aggrecan cleavage products in Lewis rat model of MIA assessed as aggrecanase-cleaved fragments at 18 mg/mL administered through infusion pump post 3 days MIA induction measured after 4 hrs of last dosage on day 7 by NITEGE sandwich ELISA; assay type: functional
# [43] = Plasma concentration in Lewis rat model of MIA at 6 mg/mL, […] post 3 days MIA induction; assay type: ADME, organism-based
logP [1],half-life [3],clearance [6],bioavailability [9],Ratio [10],clearance [13],Vd [14],bioavailability [15],fraction unbound [16],half-life [17],Vd [19],pKa [20],fraction unbound [21],half-life [22],clearance [23],Vd [24],fraction unbound [25],Ratio [26],Ratio [33],SMILES,inhibition in vivo at 30 mg/kg [18],also measured
1.63,6.5 h,7.3 mL/min/kg,93%,15,4.8 mL/min/kg,0.59 L/kg,76%,0.719,1.9 h,0.31 L/kg,7.35,0.245,5.7 h,4.8 mL/min/kg,0.52 L/kg,0.196,46,310,Cn1ccnc1[C@]1(CNC(=O)c2cc3cc(C(F)(F)F)ccc3o2)NC(=O)NC1=O,53%,solubility [2]: 1750 µg/mL; inhibition (INH) [4]: 64%; inhibition (INH) [5]: 76%; Ratio [7]: 2000; concentration at 72 h [8]: 1100 nM; Ratio [11]: 100; Tmax [12]: 1 h; Ratio [27]: 3.7; concentration at 72 h [28]: 360 nM; solubility [29]: 1740 µg/mL; concentration at 72 h [30]: 3600 nM; fraction unbound [31]: 0.143; fraction unbound [32]: 0.248
,,,,14,,,,,,,,,,,,,54,160,CCn1ccnc1[C@]1(CNC(=O)c2cc3cc(C(F)(F)F)ccc3o2)NC(=O)NC1=O,35%,
,,,,22,,,,,,,,,,,,,76,490,Cc1cnc([C@]2(CNC(=O)c3cc4cc(C(F)(F)F)ccc4o3)NC(=O)NC2=O)n1C,45%,
2.29,12 h,1 mL/min/kg,74%,,13 mL/min/kg,0.8 L/kg,100%,0.557,3.8 h,3.6 L/kg,8.52,0.255,9.1 h,1.3 mL/min/kg,0.92 L/kg,0.215,,,O=C1NC(=O)[C@](CNC(=O)c2cc3cc(C(F)(F)F)ccc3o2)(C2CC2)N1,,inhibition (INH) [34]: 44%; solubility [35]: 12 µg/mL; concentration at 72 h [36]: 2900 nM; Ratio [37]: 35; inhibition (INH) [38]: 21%; Ratio [39]: 10; inhibition [40]: Active; concentration at 72 h [41]: 200 nM; inhibition (INH) [42]: 56%; concentration at 72 h [43]: 630 nM; fraction unbound [31]: 0.206; fraction unbound [32]: 0.229
